Measurements: US7226941B2, “Compound for treating angiogenesis” (HIF Bio, Inc., priority 2003, dated 2007)

Experiments:
Assay type in all cases: cell-based, human
HIF-2α = assay: Immunoblotting of HIF-2α protein in hypoxic Hep3B cells; conditions: for inhibition of HIF-2α: hypoxia (1% O2) 18 hours, immunoblot
Method: Hep3B hepatoma cells are cultured in α-modified Eagle's medium supplemented with 10% […] fetal bovine serum, 100 units/ml penicillin, and 100 μg/ml streptomycin in a humidified atmosphere containing 5% CO2 at 37° C. Oxygen tension in the incubator is held at either 140 mm Hg (20% O2, v/v, normoxia) or 7 mm Hg (1% O2, v/v, hypoxia). After 24 hour stabilization under normoxic conditions, cells are incubated under normoxic or hypoxic conditions for 18 hours in the presence or in the absence of compounds of the invention. For the immunoblotting of HIF-1α or HIF-2α in cultured cells, 20 μg of extracted proteins are separated on 6.5% SDS/polyacrylamide gels, and then transferred to an Immobilon-P membrane (Millipore). Immobilized proteins are incubated overnight at 4° C. with rat anti-HIF-1α(Chun et al., J Cell Sci 2001 114:4051-4061) or anti-HIF-2α(Novus Biologicals, Littleton, Colo.), diluted 1:5000 in 5% nonfat milk in TBS/0.1% Tween-20 (TTBS). Horseradish peroxidase-conjugated anti-rat antiserum is used as a secondary antibody and the complexes are visualized using an Enhanced Chemiluminescence Plus Kit (Amersham Pharmacia Biotec).
To induce HIF-1α and HIF-2α proteins, Hep3B cells were incubated in a hypoxic chamber (1% oxygen tension) for 16 hours. […] The amounts of HIF proteins were measured by Western blotting method.

Hep3B cells [1] = assay: Cell viability by MTT assay; conditions: 0.5, 1, or 2 μM for 24, 48, or 72 h (FIG. 2)
Method: The percentages of viable cells were measured by MTT assay. […] Bars represent the mean of three separate experiments with the upper 95% confidence interval. *: p<0.05 vs. the control.
Compounds of Formula I or II can be evaluated for efficacy using the methods described above. In addition, compounds of the invention have efficacy in a cell viability assay using human cancer cells. The cells are treated with a compound of Formula I or II (at concentrations ranging from 0.5-2 μM) and buffer. Cellular viability is measured at 24, 48, and 72 hours. Treatment with the compound results in a notable decrease in cell viability.
The percentage of viable cells was measured by MTT assay. Cells were plated in 12 well plates. […] Resulting insoluble formazan was dissolved with 0.04 N HCl in isopropanol. Absorbance of purple color of formazan was measured at 570 nm with a spectrophotometer.

HIF = HIF activity assay (EPO enhancer luciferase reporter); conditions: Hep3B, 16 h at 1% O2 (FIGS. 4a-4i)
Method: The synthetic DNA coding the HIF-binding enhancer region of the EPO gene, 5-[…] ATCT-3 (SEQ. ID NO. 1), was inserted into the pGL3 promoter plasmid (Promega). To assay the HIF activity, Hep3B cells were cotransfected with the luciferase reporter gene and the plasmid cytomegalovirus-β-gal, using the calcium phosphate method. Transfected cells were split into nine aliquots and incubated for 42 h. After stabilizing, the cells were incubated for 16 h at 20% or 1% O2. They were then lysed and assayed for luciferase activity using a Biocounter M1500 luminometer (Lumac). β-gal assays were performed for normalization of transfection.

Hep3B hepatoma cells = assay: Cell cycle analysis by FACS (propidium iodide DNA content)
Method: FIG. 1a is the FACS data to analyze the cell distribution based on DNA content. […] The cell cycle analysis was performed using a Becton Dickinson FACStar flow cytometer. Cells (1-2×10^6) were plated in 10 cm culture dishes at concentrations determined to yield 70-80% confluence within 24 h. Cells were treated with DMSO or YC-1 and incubated for described time. After incubation, both adherent and floating cells were harvested, washed with 3 ml PBS and resuspended with 200 μl PBS, fixed in 75% ethanol for 30 min on ice. After washing with PBS, cells were labeled with propidium iodide (0.05 mg/ml) in the presence of RNase A (0.5 mg/ml), incubated at room temperature in the dark for 30 min. DNA content was then analyzed using FACStar flow cytometer, and then excited with an argon, water-cooled laser emitting at 488 nm. Propidium iodide was detected using a 630±20 nm band pass filter.
The compounds induce cell cycle arrest as shown in Hep3B liver tumor cells. After application of 1 μM into cultures of Hep3B cells, typically in 48 hours, 28% of the cells were in the G0/G1 phases, 15% in the G2/M phases, 57% in the S phase, and a small percentage were characterized as being in the sub-G1 phase. In the control, typically 60% of the cells were in the G0/G1 phases, 16% in the G2/M phases, and […] in the S-phase.

Hep3B cells [2] = assay: TUNEL assay of apoptosis
Method: (§1) The activity of caspase-3 was represented in nmoles of p-nitroaniline released per min and per ml of cellular extract. Bars represent the mean of three separate experiments with the upper 95% confidence interval. *: p<0.05 vs. the control. […] PARP cleavage was analysed by immunoblotting with a mouse anti-PARP antibody. Proteins were visualized by Enhanced Chemiluminescence Plus. The lane C is the control. […] PARP is essential for DNA-replication in the S-phase and its absence leads to apoptosis.
(§2) Referring to FIG. 3a, the caspase-3 activity increased over time to about 5 times the activity in the control after 72 h. […] Inactivation of PARP leads to cell apoptosis. PARP protein was analyzed using Western blotting with anti-PARP antibody (BIOMOL Research Laboratories, Inc), diluted 1:5000. […] For quantification of apoptosis at single cell level, based on labeling of DNA strand breaks, Terminal deoxynucleotidyl Transferase-mediated dUTP Nick End Labeling (TUNEL) assay was performed according to the manufacturer's protocol (In Situ Cell Death Detection Kit; TMR Red; Roche Diagnostics GmbH, Mannheim, Germany). It is a method for detecting the 3′—OH ends of DNA exposed during the internucleosomal cleavage that occurs during apoptosis. Incorporation of fluorescein-dUTP allows detection by FACS. […]

PARP = PARP cleavage by immunoblotting; conditions: 1, 2 μM for 90 h, Hep3B (FIG. 3b)
Method: as §1, §2

HIF-1α = assay: Immunoblotting of HIF-1α protein in hypoxic Hep3B cells; conditions: hypoxia (1% O2) 18 hours, immunoblot
Method: Hep3B hepatoma cells are cultured in α-modified Eagle's medium supplemented with 10% heat-activated fetal bovine serum, 100 units/ml penicillin, and 100 μg/ml streptomycin in a humidified atmosphere containing 5% CO2 at 37° C. Oxygen tension in the incubator is held at either 140 mm Hg (20% O2, v/v, normoxia) or 7 mm Hg (1% O2, v/v, hypoxia). After 24 hour stabilization under normoxic conditions, cells are incubated under normoxic or hypoxic conditions for 18 hours in the presence or in the absence of compounds of the invention. For the immunoblotting of HIF-1α or HIF-2α in cultured cells, 20 μg of extracted proteins are separated on 6.5% SDS/polyacrylamide gels, and then transferred to an Immobilon-P membrane (Millipore). Immobilized proteins are incubated overnight at 4° C. with rat anti-HIF-1α(Chun et al., J Cell Sci 2001 114:4051-4061) or anti-HIF-2α(Novus Biologicals, Littleton, Colo.), diluted 1:5000 in 5% nonfat milk in TBS/0.1% Tween-20 (TTBS). Horseradish peroxidase-conjugated anti-rat antiserum is used as a secondary antibody and the complexes are visualized using an Enhanced Chemiluminescence Plus Kit (Amersham Pharmacia Biotec).

HIF activity (luciferase reporter) (HIF) | Compound | expression of HIF-2α protein (HIF-2α; 1% oxygen 16 hours, 0.3 to 10 μg/ml, Western blotting (FIGS. 4a-4i)) | cell viability (Hep3B cells [1]) | percentage of cells in the S-phase over time (FIG. 1) (Hep3B hepatoma cells; Hep3B cells, time after application) | dose dependence of the cell cycle (S-phase) arrest (Hep3B hepatoma cells; Hep3B cultures) | effect on cell cycle (FIG. 1) (Hep3B hepatoma cells; Hep3B hepatoma cells) | percentage of TUNEL-positive cells (Hep3B cells [2]; 1, 2 μM for 90 h, Hep3B (FIG. 3c)) | percentage of TUNEL-positive cells with caspase-3 inhibitor (Hep3B cells [2]; caspase-3 inhibitor Ac-DEVD-CHO pre-treated 1 h before YC-1) | amount of the 89 kDa fragment of PARP (PARP) | inhibition of HIF-2α (HIF-2α) | inhibition of HIF-1α (HIF-1α)
effectively reduced | OCc1ccc(-c2nn(Cc3ccccc3)c3ccccc23)o1 [YC-1, 3-(5′-hydroxymethyl-2′-furyl)-1-benzylindazole] | effectively reduced | decreased by YC-1, dose-dependently and time-dependently | steadily increased with time after application | dose dependent up to 5 μM | S-phase arrest | increased dose-dependently | decreased significantly | increased when the YC-1 dose was doubled | – | –
– | CC(C)n1nc(-c2ccc(CO)o2)c2ccccc21 [{5-[1-(prop-2-yl)-1H-indazol-3-yl]-furan-2-yl}-methanol] | – | – | – | – | – | – | – | – | strong inhibitors | strong inhibitors
– | OCc1ccc(-n2cnc3ccccc32)o1 [{5-[1H-benzimidazol-1-yl]-furan-2-yl}-methanol] | – | – | – | – | – | – | – | – | strong inhibitors | strong inhibitors
